From patent publication US5378836A, “Rapamycin oximes and hydrazones” (American Home Products Corporation, priority 1993, dated 1995)
Where a name gives a salt, the structure may show the parent alone. Read-outs that look alike come from different tables or passages of the source.

Tests used:
[1] = system: thymocytes (T-cell proliferation); assay: comitogen-induced thymocyte proliferation procedure (LAF); format: cell-based, BALB/c mice; conditions: Mus musculus; for inhibition at 0.1 µM: T-cell, read-out: LAF % Inhib. (percent inhibition of T-cell proliferation); for IC50: Thymocyte, read-out: LAF IC50
Description: (§1) Immunosuppressive activity for representative compounds of this invention was evaluated in an in vitro standard pharmacological test procedure to measure lymphocyte proliferation (LAF) and in an in vivo standard pharmacological test procedure which evaluated the survival time of a pinch skin graft.
The comitogen-induced thymocyte proliferation procedure (LAF) was used as an in vitro measure of the immunosuppressive effects of representative compounds. Briefly, cells from the thymus of normal BALB/c mice are cultured for 72 hours with PHA and IL-1 and pulsed with tritiated thymidine during the last six hours. Cells are cultured with and without various concentrations of rapamycin, cyclosporin A, or test compound. Cells are harvested and incorporated radioactivity is determined. Inhibition of lymphoproliferation is assessed as percent change in counts per minute from non-drug treated controls. For each compound evaluated, rapamycin was also evaluated for the purpose of comparison. An IC50 was obtained for each test compound as well as for rapamycin.

[2] = system: pinch skin graft from male BAB/c donors transplanted to male C3 H(H-2K) recipients; assay: survival time of a pinch skin graft; format: in vivo, male C3 H(H-2K) recipients (mouse strain); conditions: dose of 4 mg/kg, intraperitoneally or orally; untreated control usually rejected within 6-7 days
Description: as §1
Representative compounds of this invention were also evaluated in an in vivo test procedure designed to determine the survival time of pinch skin graft from male BAB/c donors transplanted to male C3 H(H-2K) recipients. The method is adapted from Billingham R. E. and Medawar P. B., J. Exp. Biol. 28:385-402, (1951). Briefly, a pinch skin graft from the donor was grafted on the dorsum of the recipient as a allograft, and an isograft was used as control in the same region. The recipients were treated with either varying concentrations of test compounds intraperitoneally or orally. Rapamycin was used as a test control. Untreated recipients serve as rejection control. The graft was monitored daily and observations were recorded until the graft became dry and formed a blackened scab. This was considered as the rejection day. The mean graft survival time (number of days±S.D.) of the drug treatment group was compared with the control group. […] Results are expressed as the mean survival time in days. Untreated (control) pinch skin grafts are usually rejected within 6-7 days. The results shown in Table 1 are based on a dose of 4 mg/kg of test compound. A survival time of 12.0±1.7 days was obtained for rapamycin at 4 mg/kg.

[3] = system: IgE-like antibodies; conditions: in vivo; cited from earlier work
[4] = system: Candida albicans; conditions: both in vitro and in vivo; cited from earlier work
[5] = alone or in combination with picibanil; cited from earlier work
[6] = system: experimental allergic encephalomyelitis model; conditions: a model for multiple sclerosis; cited from earlier work
[7] = thymus cells cultured 72 h with PHA and IL-1, tritiated thymidine during last six hours

Row | Compound | inhibition at 0.1 µM [1] [%] | IC50 [1, 7] [nM] | Skin Graft mean survival time (days ± SD) [2] [days] | also measured
1 | CO[C@H]1C[C@@H]2CC[C@@H](C)[C@@](O)(O2)C(=O)C(=O)N2CCCC[C@H]2C(=O)O[C@H]([C@H](C)C[C@@H]2CC[C@@H](OC(=O)NCCc3ccccn3)[C@H](OC)C2)CC(=NO)[C@H](C)/C=C(\C)[C@@H](O)[C@@H](OC)C(=O)[C@H](C)C[C@H](C)/C=C/C=C/C=C/1C [Example 2, Rapamycin 27-oxime, 42-ester with 2-(pyridin-2-yl)-ethyl-carbamic acid] | 94 | 0.6 | 8.0 ± 0.6 | 
2 | CO[C@H]1C[C@@H]2CC[C@@H](C)[C@@](O)(O2)C(=O)C(=O)N2CCCC[C@H]2C(=O)O[C@H]([C@H](C)C[C@@H]2CC[C@@H](OC(=O)NCCO)[C@H](OC)C2)CC(=NO)[C@H](C)/C=C(\C)[C@@H](O)[C@@H](OC)C(=O)[C@H](C)C[C@H](C)/C=C/C=C/C=C/1C [Example 4, Rapamycin 27-oxime, 42-ester with 2-hydroxyethyl carbamic acid] | 89 | 17.8 |  | 
3 | CO[C@H]1C[C@@H]2CC[C@@H](C)[C@@](O)(O2)C(=O)C(=O)N2CCCC[C@H]2C(=O)O[C@H]([C@H](C)C[C@@H]2CC[C@@H](OS(=O)(=O)O)[C@H](OC)C2)CC(=NO)[C@H](C)/C=C(\C)[C@@H](O)[C@@H](OC)C(=O)[C@H](C)C[C@H](C)/C=C/C=C/C=C/1C [Example 6, Rapamycin 27-oxime, 42-sulfate ester pyridine salt] | 71 |  | 9.8 ± 0.4 | 
4 | CO[C@H]1C[C@@H]2CC[C@@H](C)[C@@](O)(O2)C(=O)C(=O)N2CCCC[C@H]2C(=O)O[C@H]([C@H](C)C[C@@H]2CC[C@@H](OC(N)=O)[C@H](OC)C2)CC(=NO)[C@H](C)/C=C(\C)[C@@H](O)[C@@H](OC)C(=O)[C@H](C)C[C@H](C)/C=C/C=C/C=C/1C [Example 8, Rapamycin 27-oxime, 42-ester with carbamic acid] | 87 | 13.9 | 7.0 ± 0.0 | 
5 | CO[C@H]1C[C@@H]2CC[C@@H](C)[C@@](O)(O2)C(=O)C(=O)N2CCCC[C@H]2C(=O)O[C@H]([C@H](C)C[C@@H]2CC[C@@H](OS(=O)(=O)c3cccc4cccnc34)[C@H](OC)C2)CC(=NO)[C@H](C)/C=C(\C)[C@@H](O)[C@@H](OC)C(=O)[C@H](C)C[C@H](C)/C=C/C=C/C=C/1C [Example 10, Rapamycin 27-oxime, 42-ester with 8-quinolinesulfonic acid] | 20 | 300 |  | 
6 | CO/N=C1\C[C@@H]([C@H](C)C[C@@H]2CC[C@@H](OS(=O)(=O)c3cccc4cccnc34)[C@H](OC)C2)OC(=O)[C@@H]2CCCCN2C(=O)C(=O)[C@]2(O)O[C@@H](CC[C@H]2C)C[C@H](OC)/C(C)=C/C=C/C=C/[C@@H](C)C[C@@H](C)C(=O)[C@H](OC)[C@H](O)/C(C)=C/[C@H]1C [Example 11, Rapamycin (E)-27-O-(methyl)oxime, 42-ester with 8-quinolinesulfonic acid] | 17 | 255 |  | 
7 | CO/N=C1/C[C@@H]([C@H](C)C[C@@H]2CC[C@@H](OS(=O)(=O)c3cccc4cccnc34)[C@H](OC)C2)OC(=O)[C@@H]2CCCCN2C(=O)C(=O)[C@]2(O)O[C@@H](CC[C@H]2C)C[C@H](OC)/C(C)=C/C=C/C=C/[C@@H](C)C[C@@H](C)C(=O)[C@H](OC)[C@H](O)/C(C)=C/[C@H]1C [Example 12, Rapamycin (Z)-27-O-(methyl)oxime, 42-ester with 8-quinolinesulfonic acid] | 30 | 210 |  | 
8 | CO/N=C1/C[C@@H]([C@H](C)C[C@@H]2CC[C@@H](OC(=O)Nc3ccc([N+](=O)[O-])cc3)[C@H](OC)C2)OC(=O)[C@@H]2CCCCN2C(=O)C(=O)[C@]2(O)O[C@@H](CC[C@H]2C)C[C@H](OC)/C(C)=C/C=C/C=C/[C@@H](C)C[C@@H](C)C(=O)[C@H](OC)[C@H](O)/C(C)=C/[C@H]1C [Example 13, Rapamycin (Z)-27-O-(methyl)oxime, 42-ester with 4-nitrophenylcarbamic acid] | 14 | 580 |  | 
9 | CO/N=C1/C[C@@H]([C@H](C)C[C@@H]2CC[C@@H](OS(=O)(=O)c3ccc(C)cc3)[C@H](OC)C2)OC(=O)[C@@H]2CCCCN2C(=O)C(=O)[C@]2(O)O[C@@H](CC[C@H]2C)C[C@H](OC)/C(C)=C/C=C/C=C/[C@@H](C)C[C@@H](C)C(=O)[C@H](OC)[C@H](O)/C(C)=C/[C@H]1C [Example 14, Rapamycin (Z)-27-O-(methyl)oxime, 42-ester with 4-methylbenzenesulfonic acid] | 20 | > 1000 |  | 
10 | CCOC(C)O[C@@H]1CC[C@@H](C[C@@H](C)[C@@H]2C/C(=N/OC)[C@H](C)/C=C(\C)[C@@H](O)[C@@H](OC)C(=O)[C@H](C)C[C@H](C)/C=C/C=C/C=C(\C)[C@@H](OC)C[C@@H]3CC[C@@H](C)[C@@](O)(O3)C(=O)C(=O)N3CCCC[C@H]3C(=O)O2)C[C@H]1OC (stereo partly drawn) [Example 16, 42-O-(1-Ethoxy-ethyl)-rapamycin-(Z)-27-O-(methyl)oxime] | 47 | 100 |  | 
11 | CCOC(C)O[C@@H]1CC[C@@H](C[C@@H](C)[C@@H]2C/C(=N\OC)[C@H](C)/C=C(\C)[C@@H](O)[C@@H](OC)C(=O)[C@H](C)C[C@H](C)/C=C/C=C/C=C(\C)[C@@H](OC)C[C@@H]3CC[C@@H](C)[C@@](O)(O3)C(=O)C(=O)N3CCCC[C@H]3C(=O)O2)C[C@H]1OC (stereo partly drawn) [Example 17, 42-O-(1-Ethoxy-ethyl)-rapamycin-(E)-27-O-(methyl)oxime] | 73 | 30 | 7.8 ± 0.4 | 
12 | CCCCNC(=O)O[C@@H]1CC[C@@H](C[C@@H](C)[C@@H]2C/C(=N/OC)[C@H](C)/C=C(\C)[C@@H](O)[C@@H](OC)C(=O)[C@H](C)C[C@H](C)/C=C/C=C/C=C(\C)[C@@H](OC)C[C@@H]3CC[C@@H](C)[C@@](O)(O3)C(=O)C(=O)N3CCCC[C@H]3C(=O)O2)C[C@H]1OC [Example 18, Rapamycin (Z)-27-O-(methyl)oxime-42-ester with butylcarbamic acid] | 18 | 279 |  | 
13 | CO[C@H]1C[C@@H]2CC[C@@H](C)[C@@](O)(O2)C(=O)C(=O)N2CCCC[C@H]2C(=O)O[C@H]([C@H](C)C[C@@H]2CC[C@@H](O)[C@H](OC)C2)CC(=O)[C@H](C)/C=C(\C)[C@@H](O)[C@@H](OC)C(=O)[C@H](C)C[C@H](C)/C=C/C=C/C=C/1C [rapamycin] |  |  | 12.0 ± 1.7 | inhibition of the formation of IgE-like antibodies [3]: effectively inhibited the formation of IgE-like antibodies; antifungal activity, particularly against Candida albicans [4]: found to have antifungal activity, particularly against Candida albicans, both in vitro and in vivo; IC50 [1]: 0.4 to 9.8 nM; antitumor activity [5]: has been shown to have antitumor activity; effect in the experimental allergic encephalomyelitis model [6]: effective in the experimental allergic encephalomyelitis model
